For 4 molecules, remaining activity and IC50 results are on record in publication PMC8510124, “Design, Synthesis, Biological Evaluation and In Silico Study of Benzyloxybenzaldehyde Derivatives as Selective ALDH1A3 Inhibitors” (Molecules, 2021).

Test [1] has as its target T1, ALDH1A3 (Homo sapiens, UniProt P47895).
T1 construct: recombinant, N-terminal (His)6 tag
T1 sequence (P47895 2-512): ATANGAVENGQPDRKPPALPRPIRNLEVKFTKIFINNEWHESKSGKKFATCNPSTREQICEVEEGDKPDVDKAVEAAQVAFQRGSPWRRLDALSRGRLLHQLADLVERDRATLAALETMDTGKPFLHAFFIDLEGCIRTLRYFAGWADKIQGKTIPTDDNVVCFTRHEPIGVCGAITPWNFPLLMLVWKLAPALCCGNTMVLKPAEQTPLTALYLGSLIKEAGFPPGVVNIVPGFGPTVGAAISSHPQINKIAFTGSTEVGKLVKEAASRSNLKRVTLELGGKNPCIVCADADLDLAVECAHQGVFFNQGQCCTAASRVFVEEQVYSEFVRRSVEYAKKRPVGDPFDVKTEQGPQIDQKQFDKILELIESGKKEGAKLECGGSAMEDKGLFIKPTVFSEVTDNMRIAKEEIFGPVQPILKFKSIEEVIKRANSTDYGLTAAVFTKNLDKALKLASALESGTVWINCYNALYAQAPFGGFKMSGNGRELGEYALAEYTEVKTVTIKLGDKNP
Briefly: fluorimetric NADH assay, single point […], […] hexanal (near Km). In kind it is biochemical. Particulars: read-out: Remaining Activity ± SE (%) at 10 μM Compound / ALDH1A3 / [S] near Km (10 μM Hex).

In test [2] the target is T1, ALDH1A3. Briefly: fluorimetric NADH dehydrogenase assay, […] hexanal, IC50 curve. In kind it is biochemical. Particulars: read-out: IC50 (μM) ± SE ALDH1A3.

Structures are written as SMILES.

Usually IC50 stands for the midpoint of a concentration-inhibition curve.

With `COc1cc(C=O)ccc1OC(=O)c1ccc(Cl)cc1` [ABMM-1, 4-Formyl-2-methoxyphenyl 4-Chlorobenzoate], the remaining activity at 10 µM at ALDH1A3 [1] was found to be 21.07 ± 0.1%. Take `O=Cc1ccc(OCc2ccc(Cl)cc2)cc1` [ABMM-15, 4-((4-Chlorobenzyl)oxy)benzaldehyde]: at ALDH1A3 [2], the concentration for half-maximal inhibition (IC50) is 0.23 ± 0.05 µM. Regarding `COc1cc(C=O)ccc1OCc1ccc(Cl)cc1` [ABMM-16, 4-((4-Chlorobenzyl)oxy)-3-methoxybenzaldehyde], at ALDH1A3 [2], the IC50 turned out to be 1.29 ± 0.1 µM. On to `COc1cc(C=O)cc(OC)c1OC(=O)c1ccc(F)cc1` [ABMM-18, 4-Formyl-2,6-dimethoxyphenyl 4-Fluorobenzoate], for which the remaining activity at 10 µM on ALDH1A3 [1] amounted to 16 ± 3.4%.
